Data: article PMC8724216, “Biochemical and structural characterization of beta-carbonic anhydrase from the parasite Trichomonas vaginalis” (Journal of Molecular Medicine (Berlin, Germany), 2021)

target: T1, TvaCA2 (Trichomonas vaginalis, UniProt A2DLG4); experiment: stopped-flow CO2 hydration, phenol red; assay type: biochemical; details: read-out: TvaCA2 β
T1 construct: gene TVAG_268150; recombinant in E. coli BL21 Star (DE3), pBVboostFG; 6xHis-tag removed by thrombin; 185 residues; homodimer, zinc
T1 sequence (A2DLG4 1-184): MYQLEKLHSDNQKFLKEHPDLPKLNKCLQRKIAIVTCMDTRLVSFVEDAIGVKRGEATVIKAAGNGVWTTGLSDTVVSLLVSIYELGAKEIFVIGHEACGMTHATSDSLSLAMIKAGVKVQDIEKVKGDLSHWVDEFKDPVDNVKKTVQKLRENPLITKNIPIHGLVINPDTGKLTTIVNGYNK

SMILES | Ki [µM]
CC1(C)O[C@@H]2[C@@H](CO[C@@]3(COS(N)(=O)=O)OC(C)(C)O[C@@H]23)O1 [TPM, topiramate] | > 10
Nc1nnc(S(N)(=O)=O)s1 [compound 13, 5-amino-1,3,4-thiadizole-2-sulfonamide] | 1.15
O=C1NS(=O)(=O)c2ccccc21 [SAC, saccharin] | > 10
NS(=O)(=O)c1cccc(S(N)(=O)=O)c1 [compound 3, 1,3-disulfamoyl benzene] | 0.446
Cc1ccc(-c2cc(C(F)(F)F)nn2-c2ccc(S(N)(=O)=O)cc2)cc1 [CLX, celecoxib] | > 10
NS(=O)(=O)c1ccc(S(=O)(=O)Nc2cccc3c(Cl)c[nH]c23)cc1 [IND, indisulam] | > 10
CCN1CCCC1CNC(=O)c1cc(S(N)(=O)=O)ccc1OC (centres unmarked) [SLP, sulpride] | > 10
NS(=O)(=O)Cc1noc2ccccc12 [ZNS, zonisamide] | > 10
Nc1cc(C(F)(F)F)c(S(N)(=O)=O)cc1S(N)(=O)=O [compound 11, 4-amino-6-trifluoromethyl-benzene-1,3-disulfonamide] | 0.44
Nc1cc(Cl)c(S(N)(=O)=O)cc1S(N)(=O)=O [compound 12, 4-amino-6-chloro-1,3-benzenedisulfonamide] | 0.382
Nc1ccc(S(N)(=O)=O)cc1Br [compound 9, 3-bromo-4-amino-benzenesulfonamide] | > 10
Cc1onc(-c2ccccc2)c1-c1ccc(S(N)(=O)=O)cc1 [VLX, valdecoxib] | > 10
NS(=O)(=O)c1ccc(N2CCCCS2(=O)=O)cc1 [SLT, sulthiame] | > 10
CCN[C@H]1CN(CCCOC)S(=O)(=O)c2sc(S(N)(=O)=O)cc21 [BRZ] | 3.23
CC(=O)N=c1sc(S(N)(=O)=O)nn1C [MZA, methazolamide] | 0.39
NS(=O)(=O)c1nnc(NS(=O)(=O)c2ccccc2)s1 [BZA] | 4.21
NS(=O)(=O)c1cc2c(cc1Cl)NCNS2(=O)=O [HCT] | 3.06

target: T1, TvaCA2; experiment: biochemical; parameters: stopped-flow CO2 hydration, phenol red absorbance at 557 nm, 20 °C, pH 7.5, 15 min preincubation; details: inhibitor; read-out: TvaCA2 β
Description: CA-catalyzed CO2 hydration activity was investigated with an Applied Photophysics stopped-flow instrument at 20 °C [20]. Twenty millimolar Hepes was used as buffer (pH 7.5) with 20 mM Na2SO4 (for maintaining a constant ionic strength). Phenol red of 0.2 mM was used as a pH indicator, working at a maximum absorbance of 557 nm. The initial rates of the CA-catalyzed CO2 hydration reaction were followed for 10–100 s. CO2 concentrations of 1.7–17 mM were used to determine the kinetic parameters and inhibition constants. For each inhibitor, the initial velocity was determined by using ≥ 6 traces of the initial 5–10% of the reaction. The uncatalyzed rates were determined similarly and subtracted from the total observed rates. DSMO was used at 5% to make the stock solution, from which 0.1 mM inhibitor solutions were prepared in dH2O. Subsequently, dilutions up to 0.01 nM were prepared with dH2O. Inhibitor and enzyme solutions were preincubated together (15 min, room temperature) prior to the assay to allow the formation of the enzyme–inhibitor complex. The inhibition constants were obtained by nonlinear least-squares methods using PRISM 3 and represent the means from ≥ 3 different measurements. The gene sequence of the second β-CA of T. vaginalis (TvaCA2) was retrieved from Universal Protein Resource Database UniProt (protein entry A2DLG4). An Escherichia coli expression system with a multipromoter vector, pBVboostFG (Online Resource 1), was used for the expression of TvaCA2. Gene synthesis and subcloning were performed by GeneArt (Thermo Fisher Scientific, Waltham, USA). The cells (OneShot® BL21 Star™ (DE3) Chemically Competent Cells, #C601003, Thermo Fisher Scientific, Waltham, USA) were cultured in an orbital shaker (200 rpm, 37 °C) in Luria–Bertani (LB) medium supplemented with 10 mg/mL gentamicin (1:1000). The cells were harvested via centrifugation (4 °C, 15 min, 5000 × g) after reaching an optical density of 0.4–0.6, and they were mechanically disrupted with an EmulsiFlex-C3 homogenizer (AVESTIN, Ottawa, Canada) in 50 mM Na2HPO4, 0.5 M NaCl, and 50 mM imidazole binding buffer (BB; pH 8.0), and centrifuged (13,000 × g, 15 min, 4 °C). […] After incubation, the resin was packed into a chromatography column with an EMD Millipore™ vacuum filtering flask (#XX1004705, Merck, Darmstad, Germany). The protein was eluted with 50 mM Na2HPO4, 0.5 M NaCl, and 350 mM imidazole (pH 7.0). The 6xHis-tag was removed by thrombin (#RECOMT, Sigma-Aldrich, St. Louis, USA) according to the Thrombin CleanCleave™ Kit manual (Sigma-Aldrich, St. Louis, USA) followed by Ni^2+-NTA affinity chromatography. NanoDrop One (Thermo Fisher Scientific, Waltham, USA) was used to determine the protein yield, and the quality of the purified protein was analyzed by SDS-PAGE (sodium dodecyl sulfate–polyacrylamide gel electrophoresis) using a 12% polyacrylamide gel visualized with PageBlue Protein staining solution (Thermo Fisher Scientific, #24,620, Waltham, USA). The obtained polypeptide bands of the SDS-PAGE gel were identified using tandem mass spectrometry (MS/MS; Meilahti Clinical Proteomics Core Facility, […]

SMILES | Ki [µM]
Nc1nccc(Nc2ccc(S(N)(=O)=O)cc2)n1 [compound 19] | > 10
NS(=O)(=O)c1ccc(CCNS(=O)(=O)c2ccc([N+](=O)[O-])cc2CO)cc1 [compound 21] | 4.16
Nc1cccc(S(N)(=O)=O)c1 [compound 01] | 3.93
NS(=O)(=O)c1cc(Cl)cc(Cl)c1O [compound 10] | > 10

same assay, conditions: read-out: TvaCA2 β

SMILES | Ki [µM]
Nc1ccc(S(N)(=O)=O)cc1Cl [compound 08] | 3.95
NCCc1ccc(S(N)(=O)=O)cc1 [compound 06] | 4.23
NCc1ccc(S(N)(=O)=O)cc1 [compound 05] | 4.19
Nc1ccc(S(=O)(=O)NCc2ccc(S(N)(=O)=O)cc2)cc1 [compound 23] | 2.26
Nc1ccc(S(N)(=O)=O)cc1F [compound 07] | 1.29
Cc1ccc(S(N)(=O)=O)cc1 [compound 04] | 1.29
Nc1ccc(S(=O)(=O)Nc2nnc(S(N)(=O)=O)s2)cc1 [compound 20] | 1.04
Nc1ccc(S(N)(=O)=O)cc1 [compound 02] | 1.29
NS(=O)(=O)c1ccc(C(=O)O)cc1 [compound 18] | 1.63
Nc1ccc(S(=O)(=O)Nc2ccc(S(N)(=O)=O)cc2)cc1 [compound 22] | 3.9
Cn1nc(S(N)(=O)=O)sc1=N [compound 14] | 1.61
